Earlier results on six compounds are cited in patent US20070026087A1 (priority 2003, published 2007).

Like-named read-outs stand apart in the source and are kept apart here.

Series [1] concerns SARS coronavirus.
The test system of series [2] is HSV (herpes simplex virus)-1. The conditions noted are these: Thurman & Gerba 1989.
In series [3] the test system is HSV (herpes simplex virus)-2. As to conditions: Thurman & Gerba 1989.
Series [4] relates to Vacciniavirus. As to conditions: Thurman & Gerba 1989.
For series [5], the system named is Adenovirus. As to conditions: Thurman & Gerba 1989.
Series [6] deals with VSV.
For series [7], the system named is Poliovirus.
The test system of series [8] is HVJ. As to conditions: Thurman & Gerba 1989.
Where [9] appears, read: reported, effective only temporarily.

As for `CC(=O)OO` [peracetic acid], in series [1], the “efficacy as disinfectant against SARS coronavirus” value (shortened to “efficacy as disinfectant”) is on record as “effective”.
Consider `O=[N+]([O-])[O-].[Ag+]` [silver nitrate], for which the “efficacy against HSV-1” value in series [2] is reported as “effective”. Besides, the “efficacy against HSV-2” value in series [3] is “effective”. Besides, the “efficacy against Vacciniavirus” value in series [4] is given as “not effective”. Besides, the “efficacy against Adenovirus” value in series [5] is “not effective”. Further, in series [6], the “efficacy against VSV” value is recorded as “not effective”. Moreover, the “efficacy against Poliovirus” value in series [7] is “not effective”. For the same compound, the “efficacy against HVJ” value in series [8] is “not effective”.
Take `O=CCCCC=O` [glutaraldehyde]: the “efficacy as disinfectant” value in series [1] (setting [9]) was “effective”.
With `C1CO1` [ethylene oxide gas, ethylene oxide], the “efficacy as disinfectant” value in series [1] (setting [9]) was “effective”.
As to `CCO` [ethanol], in series [1] (setting [9]), the “efficacy as disinfectant” value was “effective”.
On to `OCl` [sodium hypochlorite], for which the “efficacy as disinfectant” value in series [1] (setting [9]) is “effective”.
